Data as given in patent publication US12419892B2, “Pharmaceutical compositions comprising nilotinib” (XSPRAY PHARMA AB, priority 2023, dated 2025).

Key:
[1] = cited from earlier work
[2] = literature (Li, Singamsetti, Puppala); cited from earlier work
[3] = Genotoxicity classification of Nilotinib impurity A; conditions: not disclosed
Excerpt: Regulatory agencies, such as the FDA and the European Medicines Agency (EMA), have specific guidelines and regulations for assessing and managing the risks associated with genotoxic compounds, particularly in the context of pharmaceuticals and chemical safety.

Row | Structure (SMILES) | pKa [1] | genotoxicity classification [2] | genotoxicity, internal evaluations [3]
1 | O=C1O[C@H]([C@@H](O)CO)C(O)=C1O [Ascorbic acid, ascorbic acid] | about 4.2 | – | –
2 | Cc1cn(-c2cc(N)cc(C(F)(F)F)c2)cn1 [Nilotinib impurity A, 3-(4-methylimidazol-1-yl)-5-(trifluoromethyl) aniline] | – | potentially genotoxic or mutagenic | may not be genotoxic
